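Following 48 hours of exposure in 96-well plates, responses at five concentrations were used to interpolate endpoints linearly. The concentration for full growth arrest is given as TGI.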
Legend:
Assay in all cases: NCI-60 cell line screen, 48 h
HOP-62 NSCLC = system: HOP-62 NSCLC
OVCAR-3 ovarian = system: OVCAR-3 ovarian
NCI-H23 lung = system: NCI-H23 lung
TK-10 renal = system: TK-10 renal
SF-539 CNS = system: SF-539 CNS
UO-31 renal = system: UO-31 renal
KM12 colon = system: KM12 colon
RPMI-8226 leukemia = system: RPMI-8226 leukemia
COLO 205 colon = system: COLO 205 colon
SR leukemia = system: SR leukemia
NCI/ADR-RES ovarian = system: NCI/ADR-RES ovarian
MDA-N = system: MDA-N
LOX IMVI melanoma = system: LOX IMVI melanoma
MCF7 breast = system: MCF7 breast
CAKI-1 renal = system: CAKI-1 renal
UACC-62 melanoma = system: UACC-62 melanoma
CCRF-CEM leukemia = system: CCRF-CEM leukemia
HOP-92 NSCLC = system: HOP-92 NSCLC
NCI-H460 lung = system: NCI-H460 lung
MDA-MB-231 breast = system: MDA-MB-231 breast
RXF 393 renal = system: RXF 393 renal
M14 melanoma = system: M14 melanoma
HCT-116 colon = system: HCT-116 colon
SN12C renal = system: SN12C renal
SK-OV-3 ovarian = system: SK-OV-3 ovarian
A498 renal = system: A498 renal
OVCAR-4 ovarian = system: OVCAR-4 ovarian
UACC-257 melanoma = system: UACC-257 melanoma
HCC-2998 colon = system: HCC-2998 colon
MALME-3M melanoma = system: MALME-3M melanoma
SF-268 CNS = system: SF-268 CNS
T-47D breast = system: T-47D breast
SF-295 CNS = system: SF-295 CNS
SNB-19 CNS = system: SNB-19 CNS
BT-549 breast = system: BT-549 breast
786-0 renal = system: 786-0 renal
HS 578T breast = system: HS 578T breast
MDA-MB-435 = system: MDA-MB-435
K-562 leukemia = system: K-562 leukemia
HCT-15 colon = system: HCT-15 colon
DU-145 prostate = system: DU-145 prostate
NCI-H522 lung = system: NCI-H522 lung
SK-MEL-2 melanoma = system: SK-MEL-2 melanoma
SK-MEL-5 melanoma = system: SK-MEL-5 melanoma
NCI-H226 lung = system: NCI-H226 lung
U251 CNS = system: U251 CNS
ACHN renal = system: ACHN renal
MOLT-4 leukemia = system: MOLT-4 leukemia
OVCAR-8 ovarian = system: OVCAR-8 ovarian
A549 NSCLC = system: A549 NSCLC
SW-620 colon = system: SW-620 colon
SK-MEL-28 melanoma = system: SK-MEL-28 melanoma
HL-60(TB) leukemia = system: HL-60(TB) leukemia
SNB-75 CNS = system: SNB-75 CNS
OVCAR-5 ovarian = system: OVCAR-5 ovarian
IGROV1 ovarian = system: IGROV1 ovarian
HT29 colon = system: HT29 colon
EKVX NSCLC = system: EKVX NSCLC
PC-3 prostate = system: PC-3 prostate

Measured: TGI

COc1ccc(N2C(=O)/C(=C\c3cc(OC)c(OC)c(OC)c3)S(=O)(=O)C2c2ccccc2)cc1 (stereo not drawn)
78.9 µM: NCI/ADR-RES ovarian
41.6 µM: COLO 205 colon
71.1 µM: SK-MEL-2 melanoma
84.2 µM: M14 melanoma
40.8 µM: MDA-N
72.3 µM: MDA-MB-435
not listed: HL-60(TB) leukemia | SNB-75 CNS | OVCAR-5 ovarian | IGROV1 ovarian | HT29 colon | EKVX NSCLC | PC-3 prostate
> 100 µM: all other assays above

O=C(/C=C/c1ccccc1)CCC1C(=O)NC(=O)NC1=O
not listed: HOP-62 NSCLC | SR leukemia | CCRF-CEM leukemia | RXF 393 renal
> 100 µM: all other assays above

CCOC(=O)/C(=C\NC(C)(C)C)c1nc2ccccc2o1
70.7 µM: 786-0 renal
80.8 µM: HT29 colon
19.1 µM: HL-60(TB) leukemia
63.9 µM: HS 578T breast
63.4 µM: NCI-H226 lung
85.6 µM: MALME-3M melanoma
55.3 µM: COLO 205 colon
67.1 µM: RXF 393 renal
92.1 µM: HOP-92 NSCLC
50.6 µM: UACC-62 melanoma
68.5 µM: ACHN renal
48.6 µM: SR leukemia
54.6 µM: CCRF-CEM leukemia
50.8 µM: RPMI-8226 leukemia
26 µM: SK-MEL-5 melanoma
65.4 µM: LOX IMVI melanoma
51.1 µM: UACC-257 melanoma
not listed: UO-31 renal | MDA-MB-231 breast | HCC-2998 colon | T-47D breast | K-562 leukemia | SK-MEL-2 melanoma | U251 CNS | MOLT-4 leukemia | PC-3 prostate
> 100 µM: all other assays above

CN1CCN(C(=S)N(C)C(=O)c2cccs2)CC1
not listed: HOP-62 NSCLC | SF-539 CNS | NCI/ADR-RES ovarian | CAKI-1 renal | HCT-116 colon | SK-OV-3 ovarian | A498 renal | SF-268 CNS | SK-MEL-28 melanoma | HL-60(TB) leukemia | SNB-75 CNS | EKVX NSCLC | PC-3 prostate
> 100 µM: all other assays above
